According to ChEMBL document CHEMBL1201862, “PubChem BioAssay data set” (2004):
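Five concentrations, 48 hours, 96-well plates. GI50 marks 50% less growth.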 The source made the active and inactive calls. No stated cut-off is given here; in the data, active = GI50 up to about 1.1 µM and inactive = higher.

Legend:
Assay in all cases: DTP human tumour cell line panel, 48 h
OVCAR-5 = system: OVCAR-5
HL-60 = system: HL-60
Hs-578T = system: Hs-578T
HCT-15 = system: HCT-15
SNB-19 = system: SNB-19
U-251 = system: U-251
OVCAR-4 = system: OVCAR-4
NCI-H226 = system: NCI-H226
PC-3 = system: PC-3
ACHN = system: ACHN
SNB-75 = system: SNB-75
IGROV-1 = system: IGROV-1
COLO 205 = system: COLO 205
SK-MEL-28 = system: SK-MEL-28
CCRF-CEM = system: CCRF-CEM
NCI-H522 = system: NCI-H522
MDA-MB-435 = system: MDA-MB-435
M14 = system: M14
786-0 = system: 786-0
SF-268 = system: SF-268

Compound	GI50 (OVCAR-5)	GI50 (HL-60)	GI50 (Hs-578T)	GI50 (HCT-15)	GI50 (SNB-19)	GI50 (U-251)	GI50 (OVCAR-4)	GI50 (NCI-H226)	GI50 (PC-3)	GI50 (ACHN)	GI50 (SNB-75)	GI50 (IGROV-1)	GI50 (COLO 205)	GI50 (SK-MEL-28)	GI50 (CCRF-CEM)	GI50 (NCI-H522)	GI50 (MDA-MB-435)	GI50 (M14)	GI50 (786-0)	GI50 (SF-268)
CC1=C(C)C1[N+](=O)[O-]	> 100 µM (inactive)	43.9 µM (inactive)	> 100 µM (inactive)	> 100 µM	> 100 µM (inactive)	> 100 µM (inactive)	> 100 µM (inactive)	> 100 µM (inactive)	> 100 µM (inactive)	> 100 µM (inactive)	26.1 µM (inactive)	> 100 µM (inactive)	> 100 µM (inactive)	> 100 µM (inactive)	> 100 µM (inactive)	> 100 µM (inactive)	> 100 µM (inactive)	> 100 µM (inactive)	> 100 µM (inactive)	> 100 µM (inactive)
O=C1C=C/C(=N/c2ccccc2)c2ccccc21	17.9 µM (inactive)	4.89 µM (inactive)	3.74 µM (inactive)	9.42 µM	21.8 µM (inactive)	7.82 µM (inactive)	11.9 µM (inactive)	11.4 µM (inactive)	10.5 µM (inactive)	14.4 µM (inactive)	6.53 µM (inactive)	5.25 µM (inactive)	7.03 µM (inactive)	20.3 µM (inactive)	4.29 µM (inactive)	10.2 µM (inactive)	1.84 µM (inactive)	6.21 µM (inactive)	12.3 µM (inactive)	11.3 µM (inactive)
O=c1c(C(c2cc(OCc3ccccc3)cc(OCc3ccccc3)c2)c2c(O)oc3ccccc3c2=O)c(O)oc2ccccc12	11.8 µM (inactive)	2.51 µM (inactive)	5.96 µM (inactive)	3.17 µM	3.74 µM (inactive)	4.78 µM (inactive)	4.97 µM (inactive)	9.64 µM (inactive)	4 µM (inactive)	2.92 µM (inactive)	3.37 µM (inactive)	14.1 µM (inactive)	8.45 µM (inactive)	12.7 µM (inactive)	2.42 µM (inactive)	8.61 µM (inactive)	4.83 µM (inactive)	7.13 µM (inactive)	8.63 µM (inactive)	5.07 µM (inactive)
CN(CCCN(C)Cc1ccc(Cl)c(Cl)c1)CCN1CCCC1	28.7 µM (inactive)	23.4 µM (inactive)	17.7 µM (inactive)	29 µM	22.5 µM (inactive)	16.8 µM (inactive)	66.7 µM (inactive)	21.2 µM (inactive)	28.2 µM (inactive)	27.8 µM (inactive)	19.1 µM (inactive)	27.7 µM (inactive)	9.35 µM (inactive)	1.93 µM (inactive)	7.11 µM (inactive)	16 µM (inactive)	3.33 µM (inactive)	5.73 µM (inactive)	13.5 µM (inactive)	27.5 µM (inactive)
CC1(CCCO)CCCCCCCCCC(C)(CCCO)C1=O (stereo not given)	> 100 µM (inactive)	40 µM (inactive)	> 100 µM (inactive)	> 100 µM	> 100 µM (inactive)	> 100 µM (inactive)	> 100 µM (inactive)	> 100 µM (inactive)	> 100 µM (inactive)	> 100 µM (inactive)	> 100 µM (inactive)	> 100 µM (inactive)	> 100 µM (inactive)	> 100 µM (inactive)	55 µM (inactive)	> 100 µM (inactive)	> 100 µM (inactive)	> 100 µM (inactive)	> 100 µM (inactive)	> 100 µM (inactive)
CC(=O)OCc1ccc2c(c1)C(O)NC(=O)O2 (stereo not given)	> 100 µM (inactive)	> 100 µM (inactive)	18.7 µM (inactive)	44.3 µM	> 100 µM (inactive)	58.6 µM (inactive)	93.1 µM (inactive)	96.6 µM (inactive)	> 100 µM (inactive)	> 100 µM (inactive)	> 100 µM (inactive)	> 100 µM (inactive)	> 100 µM (inactive)	> 100 µM (inactive)	12.4 µM (inactive)	68.7 µM (inactive)	> 100 µM (inactive)	> 100 µM (inactive)	> 100 µM (inactive)	> 100 µM (inactive)
CN/C(=N\CCSCc1nc[nH]c1C)NC#N [CIMETIDINE]	> 100 µM (inactive)	> 100 µM (inactive)	> 100 µM (inactive)	> 100 µM	> 100 µM (inactive)	> 100 µM (inactive)	99.5 µM (inactive)	> 100 µM (inactive)	> 100 µM (inactive)	> 100 µM (inactive)	33.3 µM (inactive)	> 100 µM (inactive)	> 100 µM (inactive)	> 100 µM (inactive)	> 100 µM (inactive)	> 100 µM (inactive)	> 100 µM (inactive)	> 100 µM (inactive)	> 100 µM (inactive)	> 100 µM (inactive)
